# Legend:
# [1] = Liver microsomal stability, human; conditions: for Rem @ HLM × 30 min: human liver microsomes, 1 μM compound, 0.5 mg/ml protein; for half-life at 1 μM / microsomal CLint at 1 μM: human, liver microsomes, pH 7.4
# Description: (§1) The assessment of metabolic stability of testing compounds was performed using human, mouse, rat, dog and monkey liver microsomes (20 mg protein/ml). Each reaction mixture contained 42.5 μL of 0.1 M potassium phosphate buffer pH 7.4, containing respective LM protein (final concentration 0.5 mg/ml). 2.5 μL of the compound stock solution was added in it (1 μM final concentration). The reaction was initiated by the addition of 5 μL NADPH solution (final Concentration 1 mM). At different time points (0, 5, 15, and 30 minutes), samples were quenched with 200 μL of cold acetonitrile containing ISTD Propranolol. Samples were centrifuged at 3500 rpm for 20 mM at 4° C. Supernatant was subjected to LC-MS/MS analysis for quantification. Verapamil was used as a positive control.
# [2] = Liver microsomal stability, rat; conditions: for Rem @ RLM × 30 min: rat liver microsomes, 1 μM compound, 0.5 mg/ml protein; for half-life at 1 μM / microsomal CLint at 1 μM: rat, liver microsomes, pH 7.4
# [3] = Liver microsomal stability, mouse; conditions: for Rem @ MLM × 30 min: mouse liver microsomes, 1 μM compound, 0.5 mg/ml protein; for half-life at 1 μM / microsomal CLint at 1 μM: mouse, liver microsomes, pH 7.4
# Description: as §1
# [4] = target: aryl hydrocarbon receptor (AhR) (Mus musculus (Mouse), UniProt P30561); test: AhR ligand screening: AhRE-luciferase reporter in transfected Hepa1 cells; assay type: cell-based; conditions: for Fold @ 1 nM: fold change of luciferase expression at 1 nM test compound relative to vehicle (0.1% DMSO); for Fold @ 100 nM: fold change of luciferase expression at 100 nM test compound relative to vehicle (0.1% DMSO); for Fold @ 10 uM: fold change of luciferase expression at 10 uM test compound relative to vehicle (0.1% DMSO); for Fold relative to benchmark @ 100 nM: luciferase expression at 100 nM test compound relative to 100 nM benchmark compound 11-cl-BBQ
# Procedure, shortened: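 Values are fold luciferase induction relative to vehicle (0.1% DMSO), read by luminometry of lysates from Hepa1 cells carrying an AhRE-driven luciferase reporter. Cells were seeded at 1×10^4 per well, grown overnight and treated with compound before lysis.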
# aryl hydrocarbon receptor (AhR), sequence (P30561 10-805): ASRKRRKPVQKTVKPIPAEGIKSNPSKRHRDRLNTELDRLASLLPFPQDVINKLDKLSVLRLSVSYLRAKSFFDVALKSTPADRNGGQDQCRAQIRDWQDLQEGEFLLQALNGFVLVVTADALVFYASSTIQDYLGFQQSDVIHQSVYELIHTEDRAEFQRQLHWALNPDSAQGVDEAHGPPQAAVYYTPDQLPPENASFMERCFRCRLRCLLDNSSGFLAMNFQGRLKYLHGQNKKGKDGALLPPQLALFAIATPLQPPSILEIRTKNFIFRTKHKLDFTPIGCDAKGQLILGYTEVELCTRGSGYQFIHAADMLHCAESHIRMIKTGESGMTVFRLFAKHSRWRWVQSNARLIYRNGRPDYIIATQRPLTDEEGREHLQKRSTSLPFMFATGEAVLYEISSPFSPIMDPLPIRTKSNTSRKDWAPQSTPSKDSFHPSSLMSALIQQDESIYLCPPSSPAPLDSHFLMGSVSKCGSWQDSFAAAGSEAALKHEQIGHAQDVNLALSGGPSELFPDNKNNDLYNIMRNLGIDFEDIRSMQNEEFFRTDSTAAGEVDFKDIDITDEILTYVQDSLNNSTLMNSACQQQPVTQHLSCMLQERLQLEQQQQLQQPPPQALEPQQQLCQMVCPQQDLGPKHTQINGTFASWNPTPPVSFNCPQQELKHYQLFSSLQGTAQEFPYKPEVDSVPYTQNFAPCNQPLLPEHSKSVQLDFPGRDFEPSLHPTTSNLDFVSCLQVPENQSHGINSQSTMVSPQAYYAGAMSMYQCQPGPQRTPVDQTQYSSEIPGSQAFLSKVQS
# aryl hydrocarbon receptor (AhR), sequence (P53762 whole entry partner): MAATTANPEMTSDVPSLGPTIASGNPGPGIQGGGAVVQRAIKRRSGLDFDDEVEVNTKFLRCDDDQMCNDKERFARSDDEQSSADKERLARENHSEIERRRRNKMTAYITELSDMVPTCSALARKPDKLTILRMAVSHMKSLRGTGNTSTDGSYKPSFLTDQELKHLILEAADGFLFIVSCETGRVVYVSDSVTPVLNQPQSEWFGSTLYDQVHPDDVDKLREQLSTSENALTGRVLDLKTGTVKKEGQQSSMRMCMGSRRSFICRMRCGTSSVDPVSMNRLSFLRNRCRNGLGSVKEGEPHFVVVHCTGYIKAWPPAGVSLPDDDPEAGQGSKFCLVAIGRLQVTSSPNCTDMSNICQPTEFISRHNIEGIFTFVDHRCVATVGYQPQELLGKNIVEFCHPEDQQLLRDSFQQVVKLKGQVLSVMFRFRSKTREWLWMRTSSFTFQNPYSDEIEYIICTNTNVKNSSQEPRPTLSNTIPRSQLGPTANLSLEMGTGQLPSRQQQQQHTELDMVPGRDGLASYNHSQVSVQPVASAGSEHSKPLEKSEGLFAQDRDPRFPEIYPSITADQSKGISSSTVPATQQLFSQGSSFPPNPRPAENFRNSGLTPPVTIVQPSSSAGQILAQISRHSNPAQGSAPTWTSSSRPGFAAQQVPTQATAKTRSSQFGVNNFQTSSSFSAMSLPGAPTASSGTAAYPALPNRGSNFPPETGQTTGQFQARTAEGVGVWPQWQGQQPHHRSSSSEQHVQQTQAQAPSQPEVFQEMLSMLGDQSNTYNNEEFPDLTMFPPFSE
structure (smiles),measurement,setting,value
O=C(c1cccc2ccccc12)C1CN(C(=O)c2ccccc2)c2ccc(Cl)cc21 (centres unmarked) [Compound 521],Rem @ HLM × 30 min,[1],58.0%
same,half-life at 1 μM,[1],40.3 min
same,microsomal CLint at 1 μM,[1],34 µL/min/mg
same,Rem @ RLM × 30 min,[2],45.5%
same,half-life at 1 μM,[2],24.8 min
same,microsomal CLint at 1 μM,[2],56 µL/min/mg
same,Rem @ MLM × 30 min,[3],64.6%
same,half-life at 1 μM,[3],60.9 min
same,microsomal CLint at 1 μM,[3],23 µL/min/mg
same,Fold @ 1 nM,[4],1 fold
same,Fold @ 100 nM,[4],1 fold
same,Fold @ 10 uM,[4],1 fold
same,Fold relative to benchmark @ 100 nM,[4],0.07 fold
O=C(C1CC1)n1c(-c2cccc3ccccc23)nc2ccc(Cl)cc21 [Compound 774],Rem @ HLM × 30 min,[1],52.7%
same,half-life at 1 μM,[1],36.3 min
same,microsomal CLint at 1 μM,[1],38.2 µL/min/mg
same,Rem @ RLM × 30 min,[2],45.5%
same,half-life at 1 μM,[2],31.9 min
same,microsomal CLint at 1 μM,[2],43.5 µL/min/mg
same,Rem @ MLM × 30 min,[3],28.2%
same,half-life at 1 μM,[3],19.3 min
same,microsomal CLint at 1 μM,[3],71.9 µL/min/mg
same,Fold @ 1 nM,[4],1 fold
same,Fold @ 100 nM,[4],21 fold
same,Fold @ 10 uM,[4],28 fold
same,Fold relative to benchmark @ 100 nM,[4],0.84 fold
CCc1ccc(S(=O)(=O)n2c(-c3cccc4ccccc34)nc3ccc(Cl)cc32)cc1 [Compound 776],Rem @ HLM × 30 min,[1],28.3%
same,half-life at 1 μM,[1],16.4 min
same,microsomal CLint at 1 μM,[1],84.6 µL/min/mg
same,Rem @ RLM × 30 min,[2],27.5%
same,half-life at 1 μM,[2],16.3 min
same,microsomal CLint at 1 μM,[2],84.9 µL/min/mg
same,Rem @ MLM × 30 min,[3],23.9%
same,half-life at 1 μM,[3],14.6 min
same,microsomal CLint at 1 μM,[3],94.7 µL/min/mg
same,Fold @ 1 nM,[4],1 fold
same,Fold @ 100 nM,[4],15 fold
same,Fold @ 10 uM,[4],20 fold
same,Fold relative to benchmark @ 100 nM,[4],0.6 fold
O=S(=O)(c1ccc(C(F)(F)F)cc1)n1c(-c2cccc3ccccc23)nc2cc(Cl)ccc21 [Compound 781],Rem @ HLM × 30 min,[1],44.4%
same,half-life at 1 μM,[1],24.6 min
same,microsomal CLint at 1 μM,[1],56.3 µL/min/mg
same,Rem @ RLM × 30 min,[2],43.1%
same,half-life at 1 μM,[2],24.4 min
same,microsomal CLint at 1 μM,[2],56.8 µL/min/mg
same,Rem @ MLM × 30 min,[3],18.0%
same,half-life at 1 μM,[3],12.1 min
same,microsomal CLint at 1 μM,[3],115 µL/min/mg
same,Fold @ 1 nM,[4],1 fold
same,Fold @ 100 nM,[4],20 fold
same,Fold @ 10 uM,[4],24 fold
same,Fold relative to benchmark @ 100 nM,[4],0.8 fold
O=S(=O)(c1ccc2ccccc2c1)n1c(-c2cccc3ccccc23)nc2cc(Cl)ccc21 [Compound 785],Rem @ HLM × 30 min,[1],54.2%
same,half-life at 1 μM,[1],33.9 min
same,microsomal CLint at 1 μM,[1],40.9 µL/min/mg
same,Rem @ RLM × 30 min,[2],57.1%
same,half-life at 1 μM,[2],36.5 min
same,microsomal CLint at 1 μM,[2],37.9 µL/min/mg
same,Rem @ MLM × 30 min,[3],49.3%
same,half-life at 1 μM,[3],29.4 min
same,microsomal CLint at 1 μM,[3],47.2 µL/min/mg
same,Fold @ 1 nM,[4],1 fold
same,Fold @ 100 nM,[4],16 fold
same,Fold @ 10 uM,[4],44 fold
same,Fold relative to benchmark @ 100 nM,[4],0.55 fold
O=S(=O)(c1ccc2ccccc2c1)n1c(-c2cccc3ccccc23)nc2ccc(Cl)cc21 [Compound 786],Rem @ HLM × 30 min,[1],27.4%
same,half-life at 1 μM,[1],16.1 min
same,microsomal CLint at 1 μM,[1],86.2 µL/min/mg
same,Rem @ RLM × 30 min,[2],25.6%
same,half-life at 1 μM,[2],14.8 min
same,microsomal CLint at 1 μM,[2],93.8 µL/min/mg
same,Rem @ MLM × 30 min,[3],22.1%
same,half-life at 1 μM,[3],13.4 min
same,microsomal CLint at 1 μM,[3],104 µL/min/mg
same,Fold @ 1 nM,[4],1 fold
same,Fold @ 100 nM,[4],31 fold
same,Fold @ 10 uM,[4],40 fold
same,Fold relative to benchmark @ 100 nM,[4],1.07 fold
O=C(c1ccc(SC(F)(F)F)cc1)c1c[nH]c2ccc(Cl)cc12 [Compound 884],Rem @ HLM × 30 min,[1],81.2%
same,half-life at 1 μM,[1],98.8 min
same,microsomal CLint at 1 μM,[1],14 µL/min/mg
same,Rem @ RLM × 30 min,[2],23.1%
same,half-life at 1 μM,[2],14.3 min
same,microsomal CLint at 1 μM,[2],96.7 µL/min/mg
same,Rem @ MLM × 30 min,[3],22.2%
same,half-life at 1 μM,[3],13.9 min
same,microsomal CLint at 1 μM,[3],100 µL/min/mg
same,Fold @ 1 nM,[4],1 fold
same,Fold @ 100 nM,[4],2 fold
same,Fold @ 10 uM,[4],16 fold
same,Fold relative to benchmark @ 100 nM,[4],0.04 fold
O=C(c1cccc(Cl)c1Cl)c1c[nH]c2ccc(Cl)cc12 [Compound 889],Rem @ HLM × 30 min,[1],30.2%
same,half-life at 1 μM,[1],22.6 min
same,microsomal CLint at 1 μM,[1],61.2 µL/min/mg
same,Rem @ RLM × 30 min,[2],33.5%
same,half-life at 1 μM,[2],25.6 min
same,microsomal CLint at 1 μM,[2],54.2 µL/min/mg
same,Rem @ MLM × 30 min,[3],43.5%
same,half-life at 1 μM,[3],33.9 min
same,microsomal CLint at 1 μM,[3],40.9 µL/min/mg
same,Fold @ 1 nM,[4],1 fold
same,Fold @ 100 nM,[4],1 fold
same,Fold @ 10 uM,[4],5 fold
same,Fold relative to benchmark @ 100 nM,[4],0.02 fold
O=C(c1ccc(Cl)cc1Cl)c1c[nH]c2ccc(Cl)cc12 [Compound 890],Rem @ HLM × 30 min,[1],44.7%
same,half-life at 1 μM,[1],35.2 min
same,microsomal CLint at 1 μM,[1],39.4 µL/min/mg
same,Rem @ RLM × 30 min,[2],37.4%
same,half-life at 1 μM,[2],29 min
same,microsomal CLint at 1 μM,[2],47.8 µL/min/mg
same,Rem @ MLM × 30 min,[3],39.3%
same,half-life at 1 μM,[3],28.2 min
same,microsomal CLint at 1 μM,[3],49.1 µL/min/mg
same,Fold @ 1 nM,[4],1 fold
same,Fold @ 100 nM,[4],2 fold
same,Fold @ 10 uM,[4],17 fold
same,Fold relative to benchmark @ 100 nM,[4],0.04 fold
O=C(c1ccc2nc(-c3cccc4ccccc34)n(Cc3ccc(F)cc3)c2c1)N1CCOCC1 [Compound 1404],Fold @ 1 nM,[4],1 fold
same,Fold @ 100 nM,[4],1 fold
same,Fold @ 10 uM,[4],6 fold
same,Fold relative to benchmark @ 100 nM,[4],0.03 fold
COC(=O)c1ccc2nc(-c3cccc4ccccc34)n(C(=O)c3ccc(OC(F)(F)F)cc3)c2c1 [Compound 1405],Fold @ 1 nM,[4],1 fold
same,Fold @ 100 nM,[4],2 fold
same,Fold @ 10 uM,[4],30 fold
same,Fold relative to benchmark @ 100 nM,[4],0.07 fold
COC(=O)c1ccc2c(c1)nc(-c1cccc3ccccc13)n2Cc1ccc(Cl)cc1 [Compound 1406],Fold @ 1 nM,[4],1 fold
same,Fold @ 100 nM,[4],1 fold
same,Fold @ 10 uM,[4],4 fold
same,Fold relative to benchmark @ 100 nM,[4],0.03 fold
COC(=O)c1ccc2nc(-c3cccc4ccccc34)n(Cc3ccc(Cl)cc3)c2c1 [Compound 1407],Fold @ 1 nM,[4],1 fold
same,Fold @ 100 nM,[4],1 fold
same,Fold @ 10 uM,[4],9 fold
same,Fold relative to benchmark @ 100 nM,[4],0.03 fold
O=C(c1ccc2c(c1)nc(-c1cccc3ccccc13)n2Cc1cccc2ccccc12)N1CCOCC1 [Compound 1408],Fold @ 1 nM,[4],1 fold
same,Fold @ 100 nM,[4],1 fold
same,Fold @ 10 uM,[4],4 fold
same,Fold relative to benchmark @ 100 nM,[4],0.03 fold
O=C(c1ccc2nc(-c3cccc4ccccc34)n(Cc3cccc4ccccc34)c2c1)N1CCOCC1 [Compound 1409],Fold @ 1 nM,[4],1 fold
same,Fold @ 100 nM,[4],1 fold
same,Fold @ 10 uM,[4],4 fold
same,Fold relative to benchmark @ 100 nM,[4],0.03 fold
O=C(c1ccc2c(c1)nc(-c1cccc3ccccc13)n2Cc1ccc(SC(F)(F)F)cc1)N1CCCCC1 [Compound 1411],Fold @ 1 nM,[4],1 fold
same,Fold @ 100 nM,[4],1 fold
same,Fold @ 10 uM,[4],4 fold
same,Fold relative to benchmark @ 100 nM,[4],0.03 fold
O=C(c1ccc2nc(-c3cccc4ccccc34)n(Cc3ccc(SC(F)(F)F)cc3)c2c1)N1CCCCC1 [Compound 1412],Fold @ 1 nM,[4],1 fold
same,Fold @ 100 nM,[4],1 fold
same,Fold @ 10 uM,[4],6 fold
same,Fold relative to benchmark @ 100 nM,[4],0.03 fold
